Source: patent US5770625A, “Butyryl-tyrosinyl spermine, analogs thereof and methods of preparing and using same” (priority 1994, dated 1998)
Read-outs that look alike come from different tables or passages of the source.

What was measured:
[1] = test system: postsynaptic QUIS-R of locust leg muscle; assay: Antagonism of neurally-evoked twitch contraction of locust retractor unguis nerve-muscle preparation; set-up: species or system Schistocerca gregaria; details: for effect on the neurally-evoked twitch contraction (in words): toxin 1-10 μM
Description: Electrophysiological studies. The metathoracic retractor unguis nerve-muscle preparation of the locust Schistocerca gregaria was dissected and mounted in a small Perspex bath as described previously (21). The pharmacological activity on the locust nerve muscle preparation, using reduction in neurally evoked twitch amplitude as the measure of activity. Ten fractions were pharmacologically active. […] Further purification of this fraction by reverse-phase HPLC gave four peaks (FIG. 2B), the most pharmacologically was in the major peak (hatched FIG. 2B) . This fraction gave 1.1 mg of toxin as amorphous powder.
The retractor unguis muscle and its nerve were dissected from the metathoracic legs of adult, female locusts (Schistocerca gregaria) and mounted in a Perspex perfusion chamber as described by Usherwood and Machili (21) and Bateman, et al. (14). The muscle was stretched to maximal body length and attached at its tendon or apodeme to a Grass FT 10-strain gauge by a short length of nylon thread. The volume of the muscle bath was about 0.5 ml and its contents could be exchanged within 1 sec. The preparation was perfused continuously at the rate of 5-10 ml min^-1 (except during the application of toxin (see below)) with standard locust saline of the following composition (mM): NaCl, 180; KCl, 10; CaCl2, 2; Hepes, 10; buffered to pH 6.8. The retractor unguis muscle is innervated by two excitatory motoneurons (30) and an inhibitory motoneuron (19,32), but the influence of the latter on the responsiveness of the muscle is slight. Maximal stimulation of the retractor unguis nerve at 0.2 Hz produced a series of twitch contractions of constant amplitude, which were maintained for many hours in good preparations. The test compounds were kept at -20° C. They were dissolved in locust saline on the day of the assay and tested at room temperature. The compounds were applied by pipette to a nerve-muscle preparation such that the contents of the perfusion bath were completely replaced by the test solution. Exposure to the test compound lasted 20 min. Because of the limited availability of some of the compounds, the preparation was not perfused during this period. However, the amplitude of the retractor unguis muscle twitch rarely changed by more than 5-10% over a 20 minute period. During application of the test solutions the stimulation frequency was raised to 0.6 Hz for brief periods to test for stimulus frequency-dependent effects on twitch amplitude (31,37). Dose-inhibition data were obtained by testing the effects, on single retractor unguis muscle preparations, of a range of concentrations of the test compounds. Each concentration of the respective samples was tested at least thee times, and each compound was assayed usually over a 100-fold concentration range (a total of 7-10 concentrations). The standard deviations for twitch inhibition for any given concentration of a toxin rarely exceed 10%. Those compounds for which the deviation was greater than this are identified in Tables 1-7. There was some variation in the potency of PhTX-343 and the test compounds between nerve-muscle preparations. In order to compensate for this, the following procedure was adopted: PhTX-343 was assayed at a variety of concentrations on eight retractor unguis nerve-muscle preparations to give a cumulative dose-inhibition relationship for this toxin. The concentration of PhTX-343 which reduced the twitch contraction by 50% (IC50) was then determined by fitting a curve to the data using the following equation: [formula] where: [T]= toxin concentration, I= % inhibition, Imax =maximum inhibition= 100% and n' represents the Hill slope coefficient. […] The ratio of the actual reduction in twitch amplitude obtained with this single concentration of PhTX-343 and the 50% reduction that was anticipated from the cumulative dose-inhibition relationship for this toxin, was then used as a factor to normalize the data for the test compound. […]

[2] = test system: postjunctional, quisqualate-sensitive glutamate receptors; assay: Response of the retractor unguis muscle to bath-applied L-glutamate; set-up: species or system Schistocerca gregaria
[3] = biological target: NMDA receptors of rat brain; assay: Inhibition of glutamate-induced [3H]MK-801 binding to synaptic membranes (filtration assay); details: read-out: EC50 (the concentration that inhibits 50% of binding) of [3H]MK-801
Description: Binding PhTX-433 to NMDA Receptor. The NMDA receptor is identified by its high affinity for the compound (+)-5-methyl-10,11-dihydro-5H-dibenzo[a,d]cyclohepten-5,10-imine maleate (MK-801). Th is compound is an anticonvulsant introduced by Merck Sharp & Dohme Co. and is a potent non-competitive antagonist of the NMDA receptor. Binding of [^3 H]MK-801 t o synaptic membranes from rat brain after thorough washing is extremely poor. However, the binding (measured by a filtration assay) is potentiated by glutamate in a dose-dependent manner and reaches maximal potentiation at 10 μM glutamate (26). The increase in binding of [^3 H]MK-801 resulting from addition of glutamate has been used as an index of NMDA recep tor binding.

[4] = test system: locust muscle QUIS-R; assay: Voltage dependence of antagonism of locust muscle QUIS-R; details: block relieved above about -100 mV
Description: PhTX-343 binds to the QUIS-R channel, possible at a site located within its selectivity filter (35,36). Other studies in our laboratories have shown that antagonism of locust muscle QUIS-R by PhTX-343 and compound 13, the diiodo analogue, is voltage-dependent, as one might expect for open channel blockers carrying a net positive charge. […] Cation-selective membrane channels are generally envisaged as aqueous pores lined by fixed negative charges. In the case of the amphibian nicotinic acetylcholine receptor the latter are thought to be concentrated in three clusters in the vicinity of the selectively filter (41). […] The relative disposition and number of protonated groups on the toxin seems to be important in determining potency, which appears to be maximized for a given number of protonated groups when these have a constant spacing of three methylenes on their equivalents.

Question: What does the source list for `CCCC(=O)N[C@@H](Cc1ccc(O)cc1)C(=O)NCCCCNCCCNCCCN` [Compound 2, PhTX-433]?
Answer: effect on the neurally-evoked twitch contraction (in words) [1]: abolished the twitch; effect on the response of the muscle to L-glutamate [2]: reduced the response of the retractor unguis muscle to L-glutamate; EC50 [3]: 25 µM

Question: `CCCC(=O)N[C@@H](Cc1cc(I)c(O)c(I)c1)C(=O)NCCCNCCCCNCCCN` [Compound 13] was tested. Which “increase in potency compared with PhTX-343” value [1] did it give?
Answer: The value was 4.5 fold.

Question: And the “voltage dependence of antagonism” value [4]?
Answer: Its value is “voltage-dependent”.

Question: `CCCC(=O)N[C@@H](Cc1ccc(O)cc1)C(=O)NCCCNCCCCNCCCN` [Compound 1, PhTX-343] was tested. Which “potency compared with natural PhTX-433 (in words)” value [1] did it give?
Answer: The value was “somewhat less active”.

Question: And the “physiological activity relative to that of PhTX-433, by locust muscle twitch inhibition concentration” value ([1]; PhTX-433 = 100%)?
Answer: The value was 80%.

Question: And the IC50 ([1]; cumulative dose-inhibition on eight nerve-muscle preparations, read-out: concentration which reduced the twitch contraction by 50% (IC50))?
Answer: The IC50 was 23 µM.

Question: And the “effect on the neurally-evoked twitch contraction (in words)” value [1]?
Answer: Its value is “influenced the twitch contraction in the same qualitative fashion as PhTX-433”.

Question: And the “voltage dependence of antagonism” value [4]?
Answer: The value was “voltage-dependent”.

Question: What does the source list for `CCCC(=O)N[C@@H](CC(C)C)C(=O)NCCCNCCCCNCCCN` [drawing 36]?
Answer: IC50 ([1]; Table 2, region B modifications, * SD < 20%, read-out: IC50): 23 µM; Relative Potency ([1]; Table 2, relative to PhTX-343 = 1.0): 1.0
